These molecules were tested against AMPK (assay: AMPK activation, enzyme-linked immunosorbent assay). Conditions: EC50 for AMPK activation, ELISA.
Format: biochemical
How it was run: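 Activation by each compound is measured using a conventional commercial immunoassay kit.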

| Structure (SMILES) | EC50 [nM] |
| --- | --- |
| COc1ccc(CN2CCC(NC(=O)c3ccc(C(=O)N4CCC(Oc5ccc(S(C)(=O)=O)cc5)CC4)cn3)CC2)cc1 [Compound 202, N-(1-(4-methoxybenzyl)piperidin-4-yl)-5-(4-(4-(methylsulfonyl)phenoxy)piperidine-1-carbonyl)picolinamide] | < 500 |
| N#Cc1ccc(CN2CCC(NC(=O)c3ccc(N4CCCC(Oc5ccc(C#N)cc5)C4)cn3)CC2)cc1 (stereo not shown) [Compound 265, N-(1-(4-cyanobenzyl)piperidin-4-yl)-5-(3-(4-cyanophenoxy)piperidin-1-yl)picolinamide] | 1000 to 5000 |
| COc1ccc(C(=O)C2CCN(C(=O)c3ccc(C(=O)N[C@H]4CC[C@@H](Oc5cc(F)cc(F)c5)CC4)nc3)CC2)cc1 [Compound 300, N-((cis)-4-(3,5-difluorophenoxy)cyclohexyl)-5-(4-(4-methoxybenzoyl)piperidine-1-carbonyl)picolinamide] | < 500 |
| N#Cc1ccc(CN2CCC(NC(=O)c3ccc(C(=O)N4CCC(Oc5ccc(F)c(F)c5)CC4)cn3)CC2)cc1 [Compound 158, N-(1-(4-cyanobenzyl)piperidin-4-yl)-5-(4-(3,4-difluorophenoxy)piperidine-1-carbonyl)picolinamide] | < 500 |
| CS(=O)(=O)c1ccc(OC2CCN(C(=O)c3ccc(C(=O)NC4CCN(Cc5cc(F)cc(F)c5)CC4)nc3)CC2)cc1 [Compound 203, N-(1-(3,5-difluorobenzyl)piperidin-4-yl)-5-(4-(4-(methylsulfonyl)phenoxy)piperidine-1-carbonyl)picolinamide] | < 500 |
| CS(=O)(=O)c1ccc(OC2CCN(C(=O)c3ccc(C(=O)Nc4ccc(S(=O)(=O)c5ccc(F)cc5)nc4)nc3)CC2)cc1 [Compound 261, N-(6-(4-fluorophenylsulfonyl)pyridin-3-yl)-5-(4-(4-(methylsulfonyl)phenoxy)piperidine-1-carbonyl)picolinamide] | < 500 |
| CS(=O)(=O)c1ccc(C(=O)C2CCN(C(=O)c3ccc(C(=O)NC4CCN(Cc5ccc(F)cc5)CC4)nc3)CC2)cc1 [Compound 225, N-(1-(4-fluorobenzyl)piperidin-4-yl)-5-(4-(4-(methylsulfonyl)benzoyl)piperidine-1-carbonyl)picolinamide] | < 500 |
| COc1ccc(CN2CCC(NC(=O)c3ccc(C(=O)N4CCC(C(=O)c5ccc(N6CCCC6)cc5)CC4)nc3)CC2)cc1F [Compound 443, N-(1-(3-fluoro-4-methoxybenzyl)piperidin-4-yl)-6-(4-(4-(pyrrolidin-1-yl)benzoyl)piperidine-1-carbonyl)nicotinamide] | < 500 |
| COc1ccc(CN2CCC(NC(=O)c3ccc(C(=O)N4CCC(Oc5ccc(NC(C)=O)cc5)CC4)nc3)CC2)cc1 [Compound 407, 6-(4-(4-acetamidophenoxy)piperidine-1-carbonyl)-N-(1-(4-methoxybenzyl)piperidin-4-yl)nicotinamide] | < 500 |
| N#Cc1ccc(CN2CCc3ccc(NC(=O)c4ccc(C(=O)NCc5ccc(F)cc5)cn4)cc3C2)cc1 [Compound 144, N2-(2-(4-cyanobenzyl)-1,2,3,4-tetrahydroisoquinolin-7-yl)-N5-(4-fluorobenzyl)pyridine-2,5-dicarboxamide] | 500 to 1000 |
| N#Cc1ccc(N2CCC(NC(=O)c3ccc(C(=O)N4CCN(Cc5ccc(F)cc5)CC4)nc3)CC2)cc1 [Compound 417, N-(1-(4-cyanophenyl)piperidin-4-yl)-6-(4-(4-fluorobenzyl)piperazine-1-carbonyl)nicotinamide] | < 500 |
| O=C(Nc1ccc(Oc2ccc(F)cc2)nc1)c1ccc(C(=O)N2CCC(Oc3ccc(S(F)(F)(F)(F)F)cc3)CC2)nc1 [Compound 496, N-(6-(4-fluorophenoxy)pyridin-3-yl)-6-(4-(4-(pentafluorosulfanyl)phenoxy)piperidine-1-carbonyl)nicotinamide] | < 500 |
| N#Cc1ccc(CN2CCC(NC(=O)c3ccc(C(=O)N4CCN(c5ccc(S(=O)(=O)C6CC6)cc5)CC4)cn3)CC2)cc1 [Compound 256, N-(1-(4-cyanobenzyl)piperidin-4-yl)-5-(4-(4-(cyclopropylsulfonyl)phenyl)piperazine-1-carbonyl)picolinamide] | < 500 |
| N#Cc1ccc(CN2CCC(NC(=O)c3ccc(C(=O)N4C5CCC4CC(Oc4ccc(C#N)cc4)C5)cn3)CC2)cc1 [Compound 280, N-(1-(4-cyanobenzyl)piperidin-4-yl)-5-((1R,3r,5S)-3-(4-cyanophenoxy)-8-azabicyclo[3.2.1]octane-8-carbonyl)picolinamide] | < 500 |
| O=C(NCc1ccccc1)c1ccc(C(=O)N2CCN(Cc3ccccc3)CC2)cn1 [Compound 116, N-benzyl-5-(4-benzylpiperazine-1-carbonyl)picolinamide] | 1000 to 5000 |
| COc1ccc(CN2CCC(NC(=O)c3ccc(C(=O)N4CCC(S(=O)(=O)c5ccc(F)cc5)CC4)nc3)CC2)cc1 [Compound 474, 6-(4-(4-fluorophenylsulfonyl)piperidine-1-carbonyl)-N-(1-(4-methoxybenzyl)piperidin-4-yl)nicotinamide] | 1000 to 5000 |
| N#Cc1ccc(OC2CCN(C(=O)c3ccc(C(=O)NC4CCN(Cc5cc(F)cc(F)c5)CC4)nc3)CC2)cc1 [Compound 289, 5-(4-(4-cyanophenoxy)piperidine-1-carbonyl)-N-(1-(3,5-difluorobenzyl)piperidin-4-yl)picolinamide] | < 500 |

| Structure (SMILES) | EC50 [nM] |
| --- | --- |
| COc1ccc(C(=O)C2CCN(C(=O)c3ccc(C(=O)N(C)C4CCN(Cc5ccc(C#N)cc5)CC4)cn3)CC2)cc1 [Compound 482, N-(1-(4-cyanobenzyl)piperidin-4-yl)-6-(4-(4-methoxybenzoyl)piperidine-1-carbonyl)-N-methylnicotinamide] | < 500 |
| N#Cc1ccc(CN2CCC(NC(=O)c3cccc(C(=O)NC4CCN(Cc5ccc(C#N)cc5)CC4)n3)CC2)cc1 [Compound 86, N2,N6-bis(1-(4-cyanobenzyl)piperidin-4-yl)pyridine-2,6-dicarboxamide] | 1000 to 5000 |
| N#Cc1ccc(CN2CCC(NC(=O)c3ccc(C(=O)N4CC[C@H](Oc5ccc(C#N)cc5)[C@@H](F)C4)cn3)CC2)cc1 (relative stereo) [Compound 279, N-(1-(4-cyanobenzyl)piperidin-4-yl)-5-((trans)-4-(4-cyanophenoxy)-3-fluoropiperidine-1-carbonyl)picolinamide] | < 500 |
| N#Cc1ccc(CN2CCC3(CC2)CCN(c2ccc(C(=O)N4CCN(Cc5ccc(F)cc5)CC4)cn2)C3)cc1 [Compound 31, 4-((2-(5-(4-(4-fluorobenzyl)piperazine-1-carbonyl)pyridin-2-yl)-2,8-diazaspiro[4.5]decan-8-yl)methyl)benzonitrile] | < 500 |
| O=C(Nc1ccc(-c2ccccc2)cc1)c1ccc(C(=O)N2CCN(Cc3ccc(F)cc3)CC2)cn1 [Compound 11] | < 500 |
| COc1ccc(C(=O)C2CCN(c3ccc(C(=O)NC4CCN(Cc5ccc(C#N)cc5)CC4)nn3)CC2)cc1 [Compound 362, N-(1-(4-cyanobenzyl)piperidin-4-yl)-6-(4-(4-methoxybenzoyl)piperidin-1-yl)pyridazine-3-carboxamide] | < 500 |
| CN(C)c1ccc(OC2CCN(C(=O)c3ccc(C(=O)NC4CCN(Cc5ccc(C#N)cc5)CC4)cn3)CC2)cc1 [Compound 370, N-(1-(4-cyanobenzyl)piperidin-4-yl)-6-(4-(4-(dimethylamino)phenoxy)piperidine-1-carbonyl)nicotinamide] | < 500 |
| O=C(Nc1ccccc1)c1ccc(C(=O)N2CCN(Cc3ccc(F)cc3)CC2)cn1 [Compound 107, 5-(4-(4-fluorobenzyl)piperazine-1-carbonyl)-N-phenylpicolinamide] | 5000 to 10000 |
| COc1ccc(N2CCC(NC(=O)c3ccc(C(=O)N4CCN(Cc5ccc(F)cc5)CC4)nc3)CC2)cc1 [Compound 405, 6-(4-(4-fluorobenzyl)piperazine-1-carbonyl)-N-(1-(4-methoxyphenyl)piperidin-4-yl)nicotinamide] | < 500 |
| CN(C)C(=O)c1ccc(OC2CCN(C(=O)c3ccc(C(=O)Nc4ccc(Oc5ccc(F)cc5)nc4)nc3)CC2)cc1 [Compound 360, 5-(4-(4-(dimethylcarbamoyl)phenoxy)piperidine-1-carbonyl)-N-(6-(4-fluorophenoxy)pyridin-3-yl)picolinamide] | < 500 |
| O=C(NC1CCN(Cc2ccc(F)cc2)CC1)c1ccc(C(=O)N2CC[C@H](Oc3ccc(F)cc3)C2)cn1 [Compound 182, (S)-N-(1-(4-fluorobenzyl)piperidin-4-yl)-5-(3-(4-fluorophenoxy)pyrrolidine-1-carbonyl)picolinamide] | < 500 |
| COc1ccc(C(=O)C2CCN(C(=O)c3ccc(C(=O)NCCOc4ccc(F)cc4)nc3)CC2)cc1 [Compound 305, N-(2-(4-fluorophenoxy)ethyl)-5-(4-(4-methoxybenzoyl)piperidine-1-carbonyl)picolinamide] | < 500 |
| N#Cc1ccc(CN2CCC(NC(=O)c3ccc(C(=O)N4CC[C@@H](Oc5ccc(F)cc5)C4)cn3)CC2)cc1 [Compound 278, (R)—N-(1-(4-cyanobenzyl)piperidin-4-yl)-5-(3-(4-fluorophenoxy)pyrrolidine-1-carbonyl)picolinamide] | < 500 |
| COc1cccc(CN2CCC(NC(=O)c3ccc(C(=O)N4CCC(Oc5ccc(S(C)(=O)=O)cc5)CC4)cn3)CC2)c1 [Compound 241, N-(1-(3-methoxybenzyl)piperidin-4-yl)-5-(4-(4-(methylsulfonyl)phenoxy)piperidine-1-carbonyl)picolinamide] | < 500 |
| COc1ccc(CN2CCC(NC(=O)c3ccc(C(=O)N4CCC(C(=O)c5ccc(F)cc5F)CC4)nc3)CC2)cc1 [Compound 347, 6-(4-(2,4-difluorobenzoyl)piperidine-1-carbonyl)-N-(1-(4-methoxybenzyl)piperidin-4-yl)nicotinamide] | < 500 |
| N#Cc1ccc(O[C@H]2CC[C@@H](NC(=O)c3ccc(C(=O)N4CCC(Oc5ccc(F)cc5)CC4)cn3)CC2)cc1 [Compound 167, N-((cis)-4-(4-cyanophenoxy)cyclohexyl)-5-(4-(4-fluorophenoxy)piperidine-1-carbonyl)picolinamide] | < 500 |
| N#Cc1ccc(CN2CCC(NC(=O)c3ccc(N4CCC(Oc5ccc(C#N)cc5)CC4)cn3)CC2)cc1 [Compound 165, N-(1-(4-cyanobenzyl)piperidin-4-yl)-5-(4-(4-cyanophenoxy)piperidin-1-yl)picolinamide] | < 500 |
